Source: patent publication US8889592B2, “Insecticidal and/or herbicidal composition having improved activity based on spiroheterocyclically substituted tetramic acid derivatives” (Bayer CropScience AG, priority 2010, dated 2014)

Experiments:
ALOMY = assay: Herbicidal post-emergence action; type: in vivo, Blackgrass (not resistant); details: 6.25 g of a.i./ha, 28 days after application
Description: (§1) Seeds of monocotyledonous weed plants are placed in sandy loam in wood fibre pots, covered with soil and cultivated in a greenhouse under good growth conditions. 3-4 weeks after sowing, the test plants are treated at the two- to three-leaf stage. The test compound, formulated as a wettable powder (WP), is then, at various dosages with a water application rate of 300 l/ha (converted), with the stated adjuvants added, sprayed onto the green parts of the plants. After the test plants have been kept in the greenhouse under optimum growth conditions for about 4 weeks, the effect of the preparations is rated visually in comparison to untreated controls (herbicidal effect in percent: 100% effect=the plants have died, 0% effect=like control plants).

ALOMY (Peldon) = assay: Herbicidal post-emergence action; type: in vivo, Blackgrass (resistant); details: 6.25 g of a.i./ha, 28 days after application
Description: as §1

LOLMU = assay: Herbicidal post-emergence action; type: in vivo, Italian Ryegrass; details: 6.25 g of a.i./ha, 28 days after application
Description: as §1

LOLRI = assay: Herbicidal post-emergence action; type: in vivo, Annual Ryegrass (resistant); details: 6.25 g of a.i./ha, 28 days after application
Description: as §1

[1] = Penetration through enzymatically isolated apple leaf cuticles (35° C., 60% rh); type: in vitro ADME, apple trees of the cultivar Golden Delicious; details: 0.2 g/l; for Penetration after 48 h/% EC: 500 ppm in DMF/emulsifier W 7:1 (w/w), no additive; for Penetration after 48 h/% EC + AS (0.7 g/l): with ammonium sulphate; for Penetration after 48 h/% EC + RME (1 g/l): with rapeseed oil methyl ester; for Penetration after 48 h/% EC + RME (1 g/l) + AS (0.7 g/l): with rapeseed oil methyl ester and ammonium sulphate
Description: (§2) In this test, the penetration of active compounds through enzymatically isolated cuticles of apple tree leaves is measured.
(§3) Use is made of leaves which, when fully developed, are cut from apple trees of the cultivar Golden Delicious. The cuticles are isolated by • initially filling leaf discs punched out and stained with dye on the underside by vacuum infiltration with a pectinase solution (0.2 to 2% strength) buffered to a pH between 3 and 4, • then adding sodium azide and • allowing the leaf discs treated in this manner to stand until the original leaf structure has dissolved and the non-cellular cuticles have detached.
(§4) Only the cuticles, free from hairs and stoma, of the upper sides of the leaves are then used. They are washed repeatedly alternating with water and a buffer solution of pH 7. The clean cuticles obtained are then mounted on Teflon plates and smoothed and dried with a gentle stream of air.
(§5) In the next step, the cuticle membranes obtained in this manner are placed into stainless steel diffusion cells (=transport chambers) for membrane transport studies. To this end, the cuticles are placed with a pincette into the centre of the edges, coated with silicone fat, of the diffusion cells and closed with a ring, which is also treated with fat. The arrangement is chosen such that the morphological outside of the cuticles is facing outwards, i.e. exposed to air, whereas the original inside is facing the interior of the diffusion cell.
(§6) The diffusion cells are filled with a 30% strength ethylene glycol/water solution. To determine the penetration, in each case 10 μl of the spray liquor of the composition below are applied to the outside of the cuticles. The spray liquor is prepared using local tap water of medium hardness.
(§7) After the application of the spray liquors, the water is allowed to evaporate and the chambers are inverted and placed into thermostatic tubs in which temperature and atmospheric humidity over the cuticles can be adjusted using a gentle stream of air onto the cuticles with the spray coating (35° C., 60% rh). At regular intervals, an autosampler takes aliquots and the active compound content is determined by HPLC.
(§8) The stated numbers are average values of 8 to 10 measurements. It is clearly evident that even the ammonium salts on their own improve the penetration markedly, and that, together with RME, a superadditive (synergistic) effect is present.

Myzus persicae = Myzus persicae test (activity boost through ammonium salts and penetrants); type: in vivo, green peach aphid (Myzus persicae); details: for Kill (%) after 6 d +AS + RME per 1000 ppm: 1000 ppm each; for Kill (%) after 6 d: no additive, bell pepper plants, spray
Description: (§9) Solvent: 7 parts by weight of dimethylformamide
(§10) Emulsifier: 2 parts by weight of alkylaryl polyglycol ether
(§11) To produce a suitable preparation of active compound, 1 part by weight of active compound is mixed with the stated amounts of solvent and emulsifier, and the concentrate is diluted with water to the desired concentration. For application with ammonium salts or phosphonium salts and penetration promoters (rapeseed oil methyl ester 500 EW) these are in each case added in a concentration of 1000 ppm to the spray liquor.
Bell pepper plants (Capsicum annuum) heavily infested by the green peach aphid (Myzus persicae) are sprayed to runoff point with the preparation of active compound at the desired concentration.
After the desired period of time, the kill in % is determined. 100% means that all animals have been killed; 0% means that none of the animals have been killed.

Aphis gossypii = Aphis gossypii test; type: in vivo, cotton aphid (Aphis gossypii); details: for Kill (%) after 6 d +AS + RME per 1000 ppm: 1000 ppm each; for Kill (%) after 6 d: no additive, cotton plants, spray
Description: as §9, §10
as §11, with “diluted with emulsifier-containing water to” for “diluted with water to”, “1000 ppm of a.i. to the” for “1000 ppm to the”
Cotton plants (Gossypium hirsutum) which are heavily infested by the cotton aphid (Aphis gossypii) are sprayed to runoff point with the preparation of active compound at the desired concentration.
After the desired period of time, the kill in % is determined. 100% means that all aphids have been killed; 0% means that none of the aphids have been killed.

[2] = Penetration through enzymatically isolated apple leaf cuticles (20° C., 60% rh); type: in vitro ADME, apple trees of the cultivar Golden Delicious; details: 0.1 g/l
Description: as §2, §3, §4, §5, §6
as §7, with “(20°” for “(35°”
as §8

[3] = with ammonium sulphate (2 kg/ha)
[4] = with ammonium sulphate (2 kg/ha) and Genapol LRO (1 l/ha)
[5] = 4 ppm active compound + ammonium sulphate 1000 ppm
[6] = 4 ppm active compound + ammonium sulphate and rapeseed oil methyl ester
[7] = 4 ppm active compound + rapeseed oil methyl ester 1000 ppm
[8] = 20 ppm active compound + ammonium sulphate 1000 ppm
[9] = 20 ppm active compound + ammonium sulphate and rapeseed oil methyl ester
[10] = 20 ppm active compound + rapeseed oil methyl ester 1000 ppm

In the case of `CCc1cc(C)cc(CC)c1C1=C(O)C2(CCN(OC)CC2)NC1=O` [Example I-a-3], the “herbicidal effect, a.i. + GE” value (ALOMY; with Genapol LRO (1 l/ha)) is reported as 70%, the “herbicidal effect, a.i. + AS” value (ALOMY; [3]) is reported as 0% and the “herbicidal effect, a.i. + AS + GE” value (ALOMY; [4]) is reported as 90%. The “herbicidal effect, a.i.” value (ALOMY; post-emergence, no adjuvant) was 0%, the “herbicidal effect, a.i. + GE” value (ALOMY (Peldon); with Genapol LRO (1 l/ha)) was 20% and the “herbicidal effect, a.i. + AS” value (ALOMY (Peldon); [3]) was 0%. For the same compound, the “herbicidal effect, a.i. + AS + GE” value (ALOMY (Peldon); [4]) was 60%, the “herbicidal effect, a.i.” value (ALOMY (Peldon); post-emergence, no adjuvant) was 0% and the “herbicidal effect, a.i. + GE” value (LOLMU; with Genapol LRO (1 l/ha)) was 50%. The “herbicidal effect, a.i. + AS” value (LOLMU; [3]) was 40%, the “herbicidal effect, a.i. + AS + GE” value (LOLMU; [4]) was 80% and the “herbicidal effect, a.i.” value (LOLMU; post-emergence, no adjuvant) was 20%. For the same compound, the “herbicidal effect, a.i. + GE” value (LOLRI; with Genapol LRO (1 l/ha)) was 20%, the “herbicidal effect, a.i. + AS” value (LOLRI; [3]) was 0% and the “herbicidal effect, a.i. + AS + GE” value (LOLRI; [4]) was 60%. For the same compound, the “herbicidal effect, a.i.” value (LOLRI; post-emergence, no adjuvant) was 0%, the “Penetration after 48 h/% EC” value [1] was 1% and the “Penetration after 48 h/% EC + AS (0.7 g/l)” value [1] was 9%. The “Penetration after 48 h/% EC + RME (1 g/l)” value [1] was 9% and the “Penetration after 48 h/% EC + RME (1 g/l) + AS (0.7 g/l)” value [1] was 33%.

For `CON1CCC2(CC1)NC(=O)C(c1c(C)cc(C)cc1C)=C2O` [I-a-2], the “Kill (%) after 6 d +AS 1000 ppm” value (Myzus persicae; 0.8 ppm active compound + ammonium sulphate 1000 ppm) was 0%, the “Kill (%) after 6 d +AS + RME per 1000 ppm” value (“Kill (%) … per 1000 ppm” for short) (Myzus persicae; 0.8 ppm active compound + ammonium sulphate and rapeseed oil methyl ester) was 90% and the “Kill (%) after 6 d +RME 1000 ppm” value (Myzus persicae; 0.8 ppm active compound + rapeseed oil methyl ester 1000 ppm) was 0%. The “Kill (%) after 6 d” value (Myzus persicae; 0.8 ppm active compound) was 0%, the “Kill (%) after 6 d +AS 1000 ppm” value (Myzus persicae; [5]) was 55% and the “Kill (%) … per 1000 ppm” value (Myzus persicae; [6]) was 95%. The “Kill (%) after 6 d +RME 1000 ppm” value (Myzus persicae; [7]) was 60%, the “Kill (%) after 6 d” value (Myzus persicae; 4 ppm active compound) was 0% and the “Kill (%) after 6 d +AS 1000 ppm” value (Aphis gossypii; [5]) was 0%. For the same compound, the “Kill (%) … per 1000 ppm” value (Aphis gossypii; [6]) was 90%, the “Kill (%) after 6 d +RME 1000 ppm” value (Aphis gossypii; [7]) was 40% and the “Kill (%) after 6 d” value (Aphis gossypii; 4 ppm active compound) was 0%. The “Kill (%) after 6 d +AS 1000 ppm” value (Aphis gossypii; [8]) was 85%, the “Kill (%) … per 1000 ppm” value (Aphis gossypii; [9]) was 95% and the “Kill (%) after 6 d +RME 1000 ppm” value (Aphis gossypii; [10]) was 95%. The “Kill (%) after 6 d” value (Aphis gossypii; 20 ppm active compound) was 0%.

For `CCON1CCC2(CC1)NC(=O)C(c1c(C)cc(C)cc1C)=C2O` [Example I-a-4], the “Penetration after 48 h/% EC” value [1] was 0%, the “Penetration after 48 h/% EC + AS (0.7 g/l)” value [1] was 3% and the “Penetration after 48 h/% EC + RME (1 g/l)” value [1] was 6%. For the same compound, the “Penetration after 48 h/% EC + RME (1 g/l) + AS (0.7 g/l)” value [1] was 17%.

With `CCOC(=O)OC1=C(c2cc(C)ccc2C)C(=O)NC12CCN(OC)CC2` [I-c-1] the “Kill (%) after 6 d +AS 1000 ppm” value (Myzus persicae; [8]) was 0%, the “Kill (%) … per 1000 ppm” value (Myzus persicae; [9]) was 98% and the “Kill (%) after 6 d +RME 1000 ppm” value (Myzus persicae; [10]) was 20%. For the same compound, the “Kill (%) after 6 d” value (Myzus persicae; 20 ppm active compound) was 0%, the “Kill (%) after 6 d +AS 1000 ppm” value (Aphis gossypii; [8]) was 0% and the “Kill (%) … per 1000 ppm” value (Aphis gossypii; [9]) was 90%. For the same compound, the “Kill (%) after 6 d +RME 1000 ppm” value (Aphis gossypii; [10]) was 80% and the “Kill (%) after 6 d” value (Aphis gossypii; 20 ppm active compound) was 0%.

With `CON1CCC2(CC1)NC(=O)C(c1cc(C)ccc1C)=C2O` [Example I-a-1] the “Kill (%) after 6 d +AS 1000 ppm” value (Myzus persicae; [8]) was 0%, the “Kill (%) … per 1000 ppm” value (Myzus persicae; [9]) was 60% and the “Kill (%) after 6 d +RME 1000 ppm” value (Myzus persicae; [10]) was 0%. For the same compound, the “Kill (%) after 6 d” value (Myzus persicae; 20 ppm active compound) was 0%, the “Penetration after 24 h/% EC” value ([2]; 500 ppm in DMF/emulsifier W 7:1 (w/w), no additive) was 0.7% and the “Penetration after 24 h/% EC + AS (1 g/D)” value ([2]; with ammonium sulphate) was 17%. The “Penetration after 24 h/% EC + DAHP (1 g/l)” value ([2]; with diammonium hydrogenphosphate) was 15%, the “Penetration after 24 h/% EC + RME (1 g/l)” value ([2]; with rapeseed oil methyl ester) was 1.7% and the “Penetration after 24 h/% EC + RME (1 g/l) + AS (1 g/l)” value ([2]; with rapeseed oil methyl ester and ammonium sulphate) was 21%. The “Penetration after 24 h/% EC + RME (1 g/l) + DAHP (1 g/l)” value ([2]; with rapeseed oil methyl ester and diammonium hydrogenphosphate) was 28%.
